Assay results from patent US20100267561A1, “HERBICIDAL PYRIDAZINONE DERIVATIVES” (priority 2007, published 2010).

What was measured:
Assay type in all cases: in vivo
[1] = system: Russian thistle (Salsola kali); experiment: Test E pre-/postemergence plant response; settings: Preemergence, 4 g ai/ha; scale 0 to 100
In short: (§1)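 Pre- and postemergence greenhouse test; compounds formulated in non-phytotoxic solvent with surfactant, postemergence plants 2–18 cm (1- to 4-leaf stage). Visual rating against untreated controls after 14 to 21 days, on a 0 (no effect) to 100 (complete control) scale.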

[2] = system: Virginia (V.) dayflower (Commelina virginica); experiment: Test E pre-/postemergence plant response; settings: scale 0 to 100
In short: as §1

kochia (Kochia scoparia) = experiment: Test E pre-/postemergence plant response; settings: scale 0 to 100
In short: as §1

[3] = system: common sowthistle (Sonchus oleraceous); experiment: Test E pre-/postemergence plant response; settings: scale 0 to 100
In short: as §1

[4] = system: prickly sida (Sida spinosa); experiment: Test E pre-/postemergence plant response; settings: scale 0 to 100
In short: as §1

[5] = system: common chickweed (Stellaria media); experiment: Test E pre-/postemergence plant response; settings: Postemergence, scale 0 to 100
In short: as §1

[6] = system: tropical (T.) spiderwort (Commelina benghalensis); experiment: Test E pre-/postemergence plant response; settings: scale 0 to 100
In short: as §1

[7] = system: bearded (Brdd.) sprangletop (Leptochloa fascicularis); experiment: Test D flooded paddy plant response; settings: Flood, scale 0 to 100 (0 no effect, 100 complete control), 21 days
Text: (§2) Three plastic pots (ca. 16-cm diameter) for each application rate were partially filled with sterilized Tama silt loam soil comprising a 35:50:15 ratio of sand, silt and clay and 2.6% organic matter. Separate plantings for each of the three pots were as follows. Seeds from the U.S. of ducksalad (Heteranthera limosa), umbrella sedge (Cyperus difformis) and purple redstem (Ammannia coccinea), were planted into one 16-cm pot for each rate. Seeds from the U.S. of rice flatsedge (Cyperus iria), bearded (Brdd.) sprangletop (Leptochloa fascicularis), one stand of 9 or 10 water-seeded rice seedlings (Oryza sativa cv. ‘Japonica—M202’), and one stand of 6 transplanted rice seedlings (Oryza sativa cv. ‘Japonica—M202’) were planted into one 16-cm pot for each rate. Seeds from the U.S. of barnyardgrass (Echinochloa crus-galli), late watergrass (Echinochloa oryzicola), early watergrass (Echinochloa oryzoides) and junglerice (Echinochloa colona) were planted into one 16-cm pot for each rate. Plantings were sequential so that crop and weed species were at the 2.0 to 2.5-leaf stage at time of treatment.
(§3) Potted plants were grown in a greenhouse with day/night temperature settings of 30/27° C., and supplemental balanced lighting was provided to maintain a 16-hour photoperiod. Test pots were maintained in the greenhouse until test completion.
(§4) At time of treatment, test pots were flooded to 3 cm above the soil surface, treated by application of test compounds directly to the paddy water, and then maintained at that water depth for the duration of the test. Effects of treatments on rice and weeds were visually evaluated by comparison to untreated controls after 21 days. Plant response ratings, summarized in Table D, are based on a scale of 0 to 100 where 0 is no effect and 100 is complete control. A dash (-) response means no test result.

[8] = system: umbrella sedge (Cyperus difformis); experiment: Test D flooded paddy plant response; settings: Flood, scale 0 to 100 (0 no effect, 100 complete control), 21 days
Text: as §2, §3, §4

[9] = system: junglerice (Echinochloa colona); experiment: Test D flooded paddy plant response; settings: Flood, scale 0 to 100 (0 no effect, 100 complete control), 21 days
Text: as §2, §3, §4

[10] = system: transplanted rice seedlings (Oryza sativa cv. ‘Japonica—M202’); experiment: Test D flooded paddy plant response; settings: Flood, scale 0 to 100 (0 no effect, 100 complete control), 21 days
Text: as §2, §3, §4

[11] = system: early watergrass (Echinochloa oryzoides); experiment: Test D flooded paddy plant response; settings: Flood, scale 0 to 100 (0 no effect, 100 complete control), 21 days
Text: as §2, §3, §4

[12] = system: purple redstem (Ammannia coccinea); experiment: Test D flooded paddy plant response; settings: Flood, scale 0 to 100 (0 no effect, 100 complete control), 21 days
Text: as §2, §3, §4

## CCc1cc(-c2ccc(C(F)(F)F)cc2)nn1-c1c(OC(=O)OC(C)C)cnn(C)c1=O [Compound 12]
[1]
  Plant response rating, Thistle, Russian: 0
[2]; 4 g ai/ha, Postemergence
  Plant response rating, Dayflower, V.: 0
[2]; 8 g ai/ha, Preemergence
  Plant response rating, Dayflower, V.: 0
[2]; 31 g ai/ha, Preemergence
  Plant response rating, Dayflower, V.: 0
[2]; Postemergence, 8 g ai/ha
  Plant response rating, Dayflower, V.: 0
[2]; Postemergence, 31 g ai/ha
  Plant response rating, Dayflower, V.: 0
[2]; Preemergence, 4 g ai/ha
  Plant response rating, Dayflower, V.: 0
Kochia (Kochia scoparia); 4 g ai/ha, Postemergence
  Plant response rating, Kochia: 0
Kochia (Kochia scoparia); 31 g ai/ha, Preemergence
  Plant response rating, Kochia: 0
Kochia (Kochia scoparia); Postemergence, 8 g ai/ha
  Plant response rating, Kochia: 0
Kochia (Kochia scoparia); Postemergence, 31 g ai/ha
  Plant response rating, Kochia: 0
Kochia (Kochia scoparia); Preemergence, 4 g ai/ha
  Plant response rating, Kochia: 0
[3]; 4 g ai/ha, Postemergence
  Plant response rating, Sowthistle: 0
[3]; Postemergence, 8 g ai/ha
  Plant response rating, Sowthistle: 0
[3]; Postemergence, 31 g ai/ha
  Plant response rating, Sowthistle: 0
[3]; Preemergence, 4 g ai/ha
  Plant response rating, Sowthistle: 0
[4]; 4 g ai/ha, Postemergence
  Plant response rating, Prickly Sida: 0
[4]; 31 g ai/ha, Preemergence
  Plant response rating, Prickly Sida: 0
[4]; Postemergence, 8 g ai/ha
  Plant response rating, Prickly Sida: 0
[4]; Postemergence, 31 g ai/ha
  Plant response rating, Prickly Sida: 0
[4]; Preemergence, 4 g ai/ha
  Plant response rating, Prickly Sida: 0
[5]; 4 g ai/ha
  Plant response rating, Chickweed: 0
[5]; 8 g ai/ha
  Plant response rating, Chickweed: 0
[5]; 31 g ai/ha
  Plant response rating, Chickweed: 0

## CCc1cc(-c2ccc(Cl)cc2)nn1-c1c(O)cnn(C)c1=O [Compound 21]
[6]; 16 g ai/ha, Preemergence
  Plant response rating, Spiderwort, T.: 0
[6]; 31 g ai/ha, Preemergence
  Plant response rating, Spiderwort, T.: 0
[6]; 62 g ai/ha, Preemergence
  Plant response rating, Spiderwort, T.: 0
[6]; Postemergence, 8 g ai/ha
  Plant response rating, Spiderwort, T.: 0
[6]; Postemergence, 16 g ai/ha
  Plant response rating, Spiderwort, T.: 0
[6]; Postemergence, 31 g ai/ha
  Plant response rating, Spiderwort, T.: 0
[6]; Postemergence, 62 g ai/ha
  Plant response rating, Spiderwort, T.: 0
[5]; 31 g ai/ha
  Plant response rating, Chickweed: 0
[7]; 16 g ai/ha
  Plant response rating, Sprangletop, Brdd.: 30
[7]; 32 g ai/ha
  Plant response rating, Sprangletop, Brdd.: 30
[7]; 64 g ai/ha
  Plant response rating, Sprangletop, Brdd.: 80
[7]; 125 g ai/ha
  Plant response rating, Sprangletop, Brdd.: 100
[7]; 250 g ai/ha
  Plant response rating, Sprangletop, Brdd.: 100
[8]; 16 g ai/ha
  Plant response rating, Sedge, Umbrella: 0
[8]; 32 g ai/ha
  Plant response rating, Sedge, Umbrella: 0
[8]; 64 g ai/ha
  Plant response rating, Sedge, Umbrella: 0
[8]; 125 g ai/ha
  Plant response rating, Sedge, Umbrella: 0
[8]; 250 g ai/ha
  Plant response rating, Sedge, Umbrella: 0
[9]; 16 g ai/ha
  Plant response rating, Junglerice: 0
[9]; 32 g ai/ha
  Plant response rating, Junglerice: 70
[9]; 64 g ai/ha
  Plant response rating, Junglerice: 100
[9]; 125 g ai/ha
  Plant response rating, Junglerice: 100
[9]; 250 g ai/ha
  Plant response rating, Junglerice: 100
[10]; 16 g ai/ha
  Plant response rating, Rice, Transplanted: 0
[10]; 32 g ai/ha
  Plant response rating, Rice, Transplanted: 0
[10]; 64 g ai/ha
  Plant response rating, Rice, Transplanted: 0
[10]; 125 g ai/ha
  Plant response rating, Rice, Transplanted: 50
[10]; 250 g ai/ha
  Plant response rating, Rice, Transplanted: 65
[11]; 16 g ai/ha
  Plant response rating, Watergrass, Early: 0
[11]; 32 g ai/ha
  Plant response rating, Watergrass, Early: 40
[11]; 64 g ai/ha
  Plant response rating, Watergrass, Early: 65
[11]; 125 g ai/ha
  Plant response rating, Watergrass, Early: 100
[11]; 250 g ai/ha
  Plant response rating, Watergrass, Early: 100
[12]; 16 g ai/ha
  Plant response rating, Redstem, Purple: 0
[12]; 32 g ai/ha
  Plant response rating, Redstem, Purple: 0
[12]; 64 g ai/ha
  Plant response rating, Redstem, Purple: 0
[12]; 125 g ai/ha
  Plant response rating, Redstem, Purple: 0
[12]; 250 g ai/ha
  Plant response rating, Redstem, Purple: 0

## Cc1cc(-c2ccc(Cl)cc2)nn1-c1c(OC(=O)c2cccc(Cl)c2)cnn(C)c1=O [Compound 32]
[2]; Postemergence, 8 g ai/ha
  Plant response rating, Dayflower, V.: 0
[2]; Postemergence, 16 g ai/ha
  Plant response rating, Dayflower, V.: 0
[2]; Postemergence, 31 g ai/ha
  Plant response rating, Dayflower, V.: 0
[2]; Postemergence, 62 g ai/ha
  Plant response rating, Dayflower, V.: 0
[3]; Postemergence, 8 g ai/ha
  Plant response rating, Sowthistle: 0
[3]; Postemergence, 16 g ai/ha
  Plant response rating, Sowthistle: 0
[3]; Postemergence, 31 g ai/ha
  Plant response rating, Sowthistle: 0
[3]; Postemergence, 62 g ai/ha
  Plant response rating, Sowthistle: 0
[4]; Postemergence, 8 g ai/ha
  Plant response rating, Prickly Sida: 0
[4]; Postemergence, 16 g ai/ha
  Plant response rating, Prickly Sida: 0
[4]; Postemergence, 31 g ai/ha
  Plant response rating, Prickly Sida: 0
[4]; Postemergence, 62 g ai/ha
  Plant response rating, Prickly Sida: 0
